Assay results published in ChEMBL document CHEMBL1938343, “Lead optimisation of selective non-zinc binding inhibitors of MMP13. Part 2” (Bioorg Med Chem Lett, 2012).
≈ marks a conversion by molar mass, not a printed value.

How the values were obtained:
[1] = molecular target: T1, A disintegrin and metalloproteinase with thrombospondin motifs 4 (Homo sapiens) (UniProt O75173); test: Inhibition of ADAM-TS4 using dimethoxyfluorescein-Ser-Pro-Leu-Ala-Gln-Ala- Val-Arg-ser-Ser-Arg-Cys-fluorescein as substrate
T1 sequence (whole entry): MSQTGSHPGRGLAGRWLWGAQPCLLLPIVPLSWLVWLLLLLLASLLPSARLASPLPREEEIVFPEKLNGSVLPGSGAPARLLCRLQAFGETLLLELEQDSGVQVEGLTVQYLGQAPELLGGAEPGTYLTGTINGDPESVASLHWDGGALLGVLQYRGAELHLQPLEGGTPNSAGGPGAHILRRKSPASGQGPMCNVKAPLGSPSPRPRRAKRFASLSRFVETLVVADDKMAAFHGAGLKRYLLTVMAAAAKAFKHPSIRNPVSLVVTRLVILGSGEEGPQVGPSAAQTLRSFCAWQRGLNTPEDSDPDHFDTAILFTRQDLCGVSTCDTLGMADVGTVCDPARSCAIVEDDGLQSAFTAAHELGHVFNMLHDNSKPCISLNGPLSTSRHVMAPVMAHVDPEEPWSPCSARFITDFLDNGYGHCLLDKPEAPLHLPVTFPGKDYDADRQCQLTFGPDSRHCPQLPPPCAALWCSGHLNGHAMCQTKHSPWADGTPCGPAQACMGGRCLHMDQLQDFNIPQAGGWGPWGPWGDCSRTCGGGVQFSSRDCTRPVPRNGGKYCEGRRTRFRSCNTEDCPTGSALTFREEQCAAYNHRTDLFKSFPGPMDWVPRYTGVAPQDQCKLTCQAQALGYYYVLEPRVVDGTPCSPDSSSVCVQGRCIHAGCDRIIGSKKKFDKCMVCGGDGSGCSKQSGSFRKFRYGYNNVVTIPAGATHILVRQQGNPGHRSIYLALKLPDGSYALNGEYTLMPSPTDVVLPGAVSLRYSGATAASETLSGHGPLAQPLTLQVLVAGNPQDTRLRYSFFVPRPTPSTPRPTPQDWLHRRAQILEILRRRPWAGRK

[2] = molecular target: T2, A disintegrin and metalloproteinase with thrombospondin motifs 5 (Homo sapiens) (UniProt Q9UNA0); test: Inhibition of ADAM-TS5 using dimethoxyfluorescein-Ser-Pro-Leu-Ala-Gln-Ala- Val-Arg-ser-Ser-Arg-Cys-fluorescein as substrate
T2 sequence (whole entry): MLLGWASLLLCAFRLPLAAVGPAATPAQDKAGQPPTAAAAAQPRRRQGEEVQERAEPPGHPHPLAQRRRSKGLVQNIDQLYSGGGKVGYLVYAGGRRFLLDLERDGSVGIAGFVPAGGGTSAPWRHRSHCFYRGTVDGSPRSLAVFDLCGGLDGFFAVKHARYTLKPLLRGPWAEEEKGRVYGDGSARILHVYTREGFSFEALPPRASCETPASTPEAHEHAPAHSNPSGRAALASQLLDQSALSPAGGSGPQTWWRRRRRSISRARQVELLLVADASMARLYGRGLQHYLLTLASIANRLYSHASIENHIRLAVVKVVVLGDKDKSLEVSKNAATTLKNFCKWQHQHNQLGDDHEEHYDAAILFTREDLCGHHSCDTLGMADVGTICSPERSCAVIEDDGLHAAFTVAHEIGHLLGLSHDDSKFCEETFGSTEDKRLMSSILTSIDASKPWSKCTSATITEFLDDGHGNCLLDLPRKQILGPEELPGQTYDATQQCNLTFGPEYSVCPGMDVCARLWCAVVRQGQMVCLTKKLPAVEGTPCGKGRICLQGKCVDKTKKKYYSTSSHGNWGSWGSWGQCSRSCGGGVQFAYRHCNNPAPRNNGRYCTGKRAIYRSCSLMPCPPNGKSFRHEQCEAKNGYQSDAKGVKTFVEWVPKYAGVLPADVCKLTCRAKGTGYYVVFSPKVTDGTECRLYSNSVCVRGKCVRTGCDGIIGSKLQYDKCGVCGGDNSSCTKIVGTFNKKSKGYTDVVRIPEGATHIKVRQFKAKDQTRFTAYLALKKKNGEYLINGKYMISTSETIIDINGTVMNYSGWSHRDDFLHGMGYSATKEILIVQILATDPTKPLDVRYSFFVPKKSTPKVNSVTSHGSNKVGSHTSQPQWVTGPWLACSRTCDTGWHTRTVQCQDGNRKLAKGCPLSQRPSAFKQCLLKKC

[3] = molecular target: T3, A disintegrin and metalloproteinase with thrombospondin motifs 1 (Homo sapiens) (UniProt Q9UHI8); test: Inhibition of ADAM-TS1 dimethoxyfluorescein-Ser-Pro-Leu-Ala-Gln-Ala- Val-Arg-ser-Ser-Arg-Cys-fluorescein
T3 sequence (whole entry): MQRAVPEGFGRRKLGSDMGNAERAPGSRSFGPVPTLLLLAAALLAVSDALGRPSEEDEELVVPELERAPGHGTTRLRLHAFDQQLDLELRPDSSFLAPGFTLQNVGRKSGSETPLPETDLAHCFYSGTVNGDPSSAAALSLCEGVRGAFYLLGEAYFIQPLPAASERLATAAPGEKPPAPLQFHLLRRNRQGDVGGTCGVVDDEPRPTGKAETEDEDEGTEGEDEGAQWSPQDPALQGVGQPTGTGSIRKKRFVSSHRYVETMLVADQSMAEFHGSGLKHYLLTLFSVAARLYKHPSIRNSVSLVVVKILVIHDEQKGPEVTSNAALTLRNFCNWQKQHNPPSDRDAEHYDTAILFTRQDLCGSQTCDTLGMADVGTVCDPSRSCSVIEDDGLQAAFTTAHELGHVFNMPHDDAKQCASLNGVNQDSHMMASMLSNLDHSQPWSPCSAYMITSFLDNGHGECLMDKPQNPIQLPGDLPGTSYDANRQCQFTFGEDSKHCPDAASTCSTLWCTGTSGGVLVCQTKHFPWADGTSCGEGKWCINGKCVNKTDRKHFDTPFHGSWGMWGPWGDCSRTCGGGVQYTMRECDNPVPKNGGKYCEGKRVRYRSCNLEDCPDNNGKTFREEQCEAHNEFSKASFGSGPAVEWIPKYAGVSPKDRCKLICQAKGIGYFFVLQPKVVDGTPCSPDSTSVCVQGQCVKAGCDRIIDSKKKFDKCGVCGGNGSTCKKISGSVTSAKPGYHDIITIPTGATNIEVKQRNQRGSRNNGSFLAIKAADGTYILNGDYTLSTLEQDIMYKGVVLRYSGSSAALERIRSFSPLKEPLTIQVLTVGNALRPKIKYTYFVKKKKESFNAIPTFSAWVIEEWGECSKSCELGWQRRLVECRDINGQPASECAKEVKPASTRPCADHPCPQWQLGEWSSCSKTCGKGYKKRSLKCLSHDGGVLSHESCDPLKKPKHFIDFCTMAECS

[4] = Lipophilicity, log D of the compound; settings: octanol/water
[5] = Apparent permeability across basolateral to apical side in human Caco2 cells at 10 uM; type: ADME, cell-based; settings: Caco-2
[6] = Intrinsic clearance in Sprague-Dawley rat hepatocytes assessed per 10^6 cells; type: ADME, cell-based, Hepatocyte; settings: Sprague-Dawley, read-out: CLH
[7] = Apparent permeability across apical to basolateral side in human Caco2 cells at 10 uM; type: ADME, cell-based; settings: Caco-2
[8] = Oral bioavailability in rat at 2 to 50 mg/kg; type: ADME, organism-based; settings: in vivo
[9] = Fraction unbound in human; type: ADME, organism-based; settings: in vivo
[10] = molecular target: Matrix metalloproteinase-9 (Homo sapiens, UniProt P14780); test: Inhibition of MMP9 using Mca-Pro-cyclohexyl-Ala-Gly-Nva-His-Ala- Dap(Dnp)-NH2 as substrate by fluorometric analysis
Sequence of Matrix metalloproteinase-9 (P14780 whole entry): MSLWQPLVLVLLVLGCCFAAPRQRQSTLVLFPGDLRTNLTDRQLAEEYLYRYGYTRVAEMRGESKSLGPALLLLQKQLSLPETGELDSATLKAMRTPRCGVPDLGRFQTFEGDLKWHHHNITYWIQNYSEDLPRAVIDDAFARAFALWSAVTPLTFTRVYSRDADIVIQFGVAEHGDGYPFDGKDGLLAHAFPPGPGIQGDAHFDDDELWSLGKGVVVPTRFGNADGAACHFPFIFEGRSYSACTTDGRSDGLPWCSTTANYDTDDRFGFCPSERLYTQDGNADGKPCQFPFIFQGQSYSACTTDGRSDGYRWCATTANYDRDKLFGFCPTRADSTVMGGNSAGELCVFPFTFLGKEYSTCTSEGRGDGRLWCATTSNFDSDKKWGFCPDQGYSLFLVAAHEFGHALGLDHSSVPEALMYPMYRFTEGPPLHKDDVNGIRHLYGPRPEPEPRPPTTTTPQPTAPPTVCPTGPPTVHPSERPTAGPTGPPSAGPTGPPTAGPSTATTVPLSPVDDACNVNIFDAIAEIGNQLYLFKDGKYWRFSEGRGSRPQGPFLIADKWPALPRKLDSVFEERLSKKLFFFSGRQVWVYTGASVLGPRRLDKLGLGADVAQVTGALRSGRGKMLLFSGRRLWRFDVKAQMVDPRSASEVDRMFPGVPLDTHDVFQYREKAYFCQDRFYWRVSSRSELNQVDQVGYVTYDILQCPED

[11] = Half life in rat at 2 mg/kg, iv; type: ADME, organism-based; parameters: dose 2 mg/kg, route intravenous; settings: in vivo
[12] = molecular target: Matrix metalloproteinase-14 (Homo sapiens, UniProt P50281); test: Inhibition of MMP14 using Mca-Pro-cyclohexyl-Ala-Gly-Nva-His-Ala- Dap(Dnp)-NH2 as substrate by fluorometric analysis
[13] = Intrinsic clearance in human microsomes; type: ADME, Microsome
Cytochrome P450 3A4 = Cytochrome P450 3A4 (Homo sapiens, UniProt P08684); test: Inhibition of CYP3A4; type: ADME; settings: read-out: pIC50 (converted)
Sequence of Cytochrome P450 3A4 (P08684 whole entry): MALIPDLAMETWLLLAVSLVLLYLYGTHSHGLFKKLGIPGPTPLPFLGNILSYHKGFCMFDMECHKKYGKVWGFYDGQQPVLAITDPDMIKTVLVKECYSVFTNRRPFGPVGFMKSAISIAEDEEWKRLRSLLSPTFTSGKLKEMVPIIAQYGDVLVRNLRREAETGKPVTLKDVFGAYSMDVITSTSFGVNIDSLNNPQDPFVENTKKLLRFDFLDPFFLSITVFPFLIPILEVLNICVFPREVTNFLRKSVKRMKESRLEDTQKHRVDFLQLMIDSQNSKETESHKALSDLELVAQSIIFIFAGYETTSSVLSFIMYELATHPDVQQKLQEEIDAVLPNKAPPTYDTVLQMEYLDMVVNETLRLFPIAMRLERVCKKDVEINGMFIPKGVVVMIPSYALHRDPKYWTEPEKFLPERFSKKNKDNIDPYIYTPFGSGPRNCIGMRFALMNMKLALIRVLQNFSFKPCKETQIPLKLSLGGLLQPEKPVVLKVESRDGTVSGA

[14] = Volume of distribution at steady state in rat at 2 mg/kg, iv; type: ADME, organism-based; parameters: dose 2 mg/kg, route intravenous; settings: in vivo, read-out: Vdss
[15] = Thermodynamic solubility of the compound; settings: Therm_solubility
[16] = molecular target: 72 kDa type IV collagenase (Homo sapiens, UniProt P08253); test: Inhibition of MMP2 using Mca-Pro-cyclohexyl-Ala-Gly-Nva-His-Ala- Dap(Dnp)-NH2 as substrate by fluorometric analysis; settings: read-out: pIC50 (converted)
Sequence of 72 kDa type IV collagenase (P08253 whole entry): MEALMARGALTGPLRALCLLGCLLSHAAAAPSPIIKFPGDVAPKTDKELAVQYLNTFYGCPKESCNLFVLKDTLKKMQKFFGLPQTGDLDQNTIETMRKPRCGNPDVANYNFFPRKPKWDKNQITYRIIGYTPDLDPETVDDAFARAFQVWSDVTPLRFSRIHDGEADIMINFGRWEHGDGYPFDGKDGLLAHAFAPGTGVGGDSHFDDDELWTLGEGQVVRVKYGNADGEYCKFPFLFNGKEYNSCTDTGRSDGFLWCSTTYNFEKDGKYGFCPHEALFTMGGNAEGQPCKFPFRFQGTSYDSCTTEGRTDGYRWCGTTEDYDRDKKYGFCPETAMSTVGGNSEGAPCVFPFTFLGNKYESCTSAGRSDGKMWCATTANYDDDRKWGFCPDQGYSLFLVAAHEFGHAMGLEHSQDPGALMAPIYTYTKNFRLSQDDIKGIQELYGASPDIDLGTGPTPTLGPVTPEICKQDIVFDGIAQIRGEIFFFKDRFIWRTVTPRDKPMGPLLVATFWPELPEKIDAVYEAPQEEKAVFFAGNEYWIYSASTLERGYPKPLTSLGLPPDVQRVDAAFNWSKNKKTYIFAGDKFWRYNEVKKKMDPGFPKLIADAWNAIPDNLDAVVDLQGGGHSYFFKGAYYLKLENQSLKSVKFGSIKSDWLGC

Cytochrome P450 2C9 = Cytochrome P450 2C9 (Homo sapiens, UniProt P11712); test: Inhibition of CYP2C9; type: ADME; settings: read-out: pIC50 (converted)
Sequence of Cytochrome P450 2C9 (P11712 whole entry): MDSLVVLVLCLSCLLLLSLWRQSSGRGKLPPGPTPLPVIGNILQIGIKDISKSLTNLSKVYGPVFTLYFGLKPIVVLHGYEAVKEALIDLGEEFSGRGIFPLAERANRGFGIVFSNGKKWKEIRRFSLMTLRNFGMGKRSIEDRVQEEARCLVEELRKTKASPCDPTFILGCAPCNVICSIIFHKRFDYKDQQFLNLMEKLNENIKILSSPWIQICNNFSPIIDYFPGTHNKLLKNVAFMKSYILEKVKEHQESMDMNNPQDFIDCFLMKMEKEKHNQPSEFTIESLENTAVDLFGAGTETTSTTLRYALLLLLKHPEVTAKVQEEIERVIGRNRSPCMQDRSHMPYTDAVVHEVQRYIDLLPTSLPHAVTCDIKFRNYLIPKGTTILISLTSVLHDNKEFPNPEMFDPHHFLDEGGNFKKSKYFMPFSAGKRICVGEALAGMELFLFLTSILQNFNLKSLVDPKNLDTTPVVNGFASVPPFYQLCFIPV

Cytochrome P450 1A2 = molecular target: T4, Cytochrome P450 1A2 (Homo sapiens, UniProt P05177); test: Inhibition of CYP1A2; type: ADME
T4 sequence (P05177 whole entry): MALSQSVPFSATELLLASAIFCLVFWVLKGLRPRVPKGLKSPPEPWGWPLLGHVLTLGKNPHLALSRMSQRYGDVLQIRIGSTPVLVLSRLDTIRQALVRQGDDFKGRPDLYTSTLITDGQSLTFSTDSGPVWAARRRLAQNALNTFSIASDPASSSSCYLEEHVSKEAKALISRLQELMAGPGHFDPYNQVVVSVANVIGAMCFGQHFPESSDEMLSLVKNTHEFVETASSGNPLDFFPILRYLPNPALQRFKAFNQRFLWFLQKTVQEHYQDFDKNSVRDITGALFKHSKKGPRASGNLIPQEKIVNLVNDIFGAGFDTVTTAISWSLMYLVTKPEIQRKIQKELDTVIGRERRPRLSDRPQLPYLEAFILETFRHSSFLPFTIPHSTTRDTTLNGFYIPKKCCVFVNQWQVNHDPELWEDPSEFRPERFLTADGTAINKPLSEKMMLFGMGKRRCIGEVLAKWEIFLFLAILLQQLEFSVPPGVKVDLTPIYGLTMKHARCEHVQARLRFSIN

[17] = molecular target: Macrophage metalloelastase (Homo sapiens, UniProt P39900); test: Inhibition of MMP12 using Mca-Pro-cyclohexyl-Ala-Gly-Nva-His-Ala- Dap(Dnp)-NH2 as substrate by fluorometric analysis
Sequence of Macrophage metalloelastase (P39900 whole entry): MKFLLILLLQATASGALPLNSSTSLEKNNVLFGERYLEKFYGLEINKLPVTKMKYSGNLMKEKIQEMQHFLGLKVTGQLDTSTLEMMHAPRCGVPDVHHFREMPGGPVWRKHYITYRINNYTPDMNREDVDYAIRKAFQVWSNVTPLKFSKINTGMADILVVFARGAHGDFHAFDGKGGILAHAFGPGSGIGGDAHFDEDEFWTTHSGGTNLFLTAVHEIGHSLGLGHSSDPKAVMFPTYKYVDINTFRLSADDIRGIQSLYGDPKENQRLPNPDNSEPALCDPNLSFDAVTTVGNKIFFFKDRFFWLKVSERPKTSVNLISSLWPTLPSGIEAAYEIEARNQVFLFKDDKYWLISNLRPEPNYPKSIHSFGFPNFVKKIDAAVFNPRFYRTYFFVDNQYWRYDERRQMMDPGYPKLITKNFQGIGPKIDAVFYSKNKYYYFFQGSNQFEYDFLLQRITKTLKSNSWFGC

[18] = (§1) Oral bioavailability in rat; type: ADME, organism-based; settings: in vivo
Cytochrome P450 2C19 = Cytochrome P450 2C19 (Homo sapiens, UniProt P33261); test: Inhibition of CYP2C19; type: ADME; settings: read-out: pIC50 (converted)
Sequence of Cytochrome P450 2C19 (P33261 whole entry): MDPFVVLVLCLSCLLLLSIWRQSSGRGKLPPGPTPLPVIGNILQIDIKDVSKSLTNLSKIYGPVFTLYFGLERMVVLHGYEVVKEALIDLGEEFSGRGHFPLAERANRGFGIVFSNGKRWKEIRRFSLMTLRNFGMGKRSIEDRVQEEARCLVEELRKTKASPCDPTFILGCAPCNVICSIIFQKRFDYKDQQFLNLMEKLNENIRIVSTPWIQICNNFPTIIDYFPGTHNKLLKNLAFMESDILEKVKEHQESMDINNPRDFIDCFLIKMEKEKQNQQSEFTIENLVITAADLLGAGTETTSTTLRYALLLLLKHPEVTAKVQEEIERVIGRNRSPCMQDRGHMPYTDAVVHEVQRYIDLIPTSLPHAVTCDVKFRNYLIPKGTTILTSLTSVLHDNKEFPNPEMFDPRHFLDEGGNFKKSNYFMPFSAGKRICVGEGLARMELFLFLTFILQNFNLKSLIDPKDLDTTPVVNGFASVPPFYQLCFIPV

[19] = Clearance in rat at 2 mg/kg, iv; type: ADME, organism-based; parameters: dose 2 mg/kg, route intravenous; settings: in vivo
Cytochrome P450 2D6 = Cytochrome P450 2D6 (Homo sapiens, UniProt P10635); test: Inhibition of CYP2D6; type: ADME; settings: read-out: pIC50 (converted)
Sequence of Cytochrome P450 2D6 (P10635 whole entry): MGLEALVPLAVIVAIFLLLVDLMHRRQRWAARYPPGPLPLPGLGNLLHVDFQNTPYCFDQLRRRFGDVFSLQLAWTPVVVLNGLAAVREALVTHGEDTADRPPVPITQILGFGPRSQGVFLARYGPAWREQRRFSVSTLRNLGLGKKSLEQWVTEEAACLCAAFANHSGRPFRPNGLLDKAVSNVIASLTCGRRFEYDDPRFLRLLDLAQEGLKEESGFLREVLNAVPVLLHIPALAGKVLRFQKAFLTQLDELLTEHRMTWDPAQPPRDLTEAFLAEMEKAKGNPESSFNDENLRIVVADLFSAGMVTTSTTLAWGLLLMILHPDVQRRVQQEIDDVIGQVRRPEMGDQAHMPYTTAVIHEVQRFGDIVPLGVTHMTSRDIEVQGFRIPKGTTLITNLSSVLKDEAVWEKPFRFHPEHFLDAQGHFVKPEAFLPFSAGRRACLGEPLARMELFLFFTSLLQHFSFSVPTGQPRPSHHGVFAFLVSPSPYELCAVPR

Collagenase 3 = Collagenase 3 (Homo sapiens, UniProt P45452); test: Inhibition of recombinant human MMP13 using Mca-Pro-cyclohexyl-Ala-Gly-Nva-His-Ala- Dap(Dnp)-NH2 as substrate by fluorometric analysis; settings: read-out: pIC50 (converted)
[20] = Fraction unbound in rat; type: ADME, organism-based; settings: in vivo
Rattus norvegicus = test: as §1; type: ADME, organism-based; settings: in vivo

## O=C(NC1CCCS(=O)(=O)C1)c1ccc(Oc2ccc(C#C[C@]3(O)CN4CCC3CC4)cc2)cc1 (single isomer, unassigned; diastereomer 1)
[1]
  INH: > 10 µM
[2]
  INH: > 10 µM
[3]
  INH: > 100 µM

## O=C(NCc1ccncn1)c1ccc(Oc2ccc(C#C[C@]3(O)CN4CCC3CC4)cc2)cc1
[4]
  logD: 1.8
[5]
  Papp B→A at 10 µM: 33 ×10⁻⁶ cm/s
[6]
  hepatocyte CLint: 3.2 µL/min/1e6 cells
[7]
  Papp A→B at 10 µM: 6.7 ×10⁻⁶ cm/s
[8]
  bioavailability: 2%

## CNC(=O)c1ccc(Oc2ccc(C#C[C@]3(O)CN4CCC3CC4)cc2)cc1
[9]
  fraction unbound: 0.24
[10]; read-out: pIC50 (converted)
  IC50: > 100 µM
[11]
  half-life: 1.9 h
[4]
  logD: 2
[12]; read-out: pIC50 (converted)
  IC50: > 100 µM
[13]
  microsomal CLint: 3.9 µL/min/mg
Cytochrome P450 3A4
  IC50: > 10 µM
[14]
  Vd: 2.4 L/kg
[5]
  Papp B→A at 10 µM: 34 ×10⁻⁶ cm/s
[6]
  hepatocyte CLint: 2.7 µL/min/1e6 cells
[15]
  solubility thermodynamic: > 1600 µM
[16]
  IC50: 20 µM
Cytochrome P450 2C9
  IC50: > 10 µM
[7]
  Papp A→B at 10 µM: 23 ×10⁻⁶ cm/s
Cytochrome P450 1A2
  IC50: > 10 µM
[17]; read-out: pIC50 (converted)
  IC50: > 100 µM
[18]
  bioavailability: 54%
Cytochrome P450 2C19
  IC50: > 10 µM
[19]
  clearance: 16 mL/min/kg
Cytochrome P450 2D6
  IC50: > 10 µM
Collagenase 3
  IC50: 0.2 µM
[20]
  fraction unbound: 0.26

## O=C(NC1CCCS(=O)(=O)C1)c1ccc(Oc2ccc(C#C[C@]3(O)CN4CCC3CC4)cc2)cc1 (single isomer, unassigned; diastereomer 2)
[10]
  pIC50: < 5
[12]
  pIC50: < 5
[13]
  microsomal CLint: < 2 µL/min/mg
[6]
  hepatocyte CLint: 3.4 µL/min/1e6 cells
[15]
  solubility thermodynamic: 120 µM (≈ 59.4 µg/mL)
[16]
  IC50: 2.51 µM
[17]
  pIC50: < 5
Rattus norvegicus
  F: 0%
Collagenase 3
  IC50: 0.01 µM
